Data reported in patent EP4603105A1, “PHARMACEUTICAL COMPOSITION CONTAINING CYCLIC COMPOUND HAVING SELECTIVE KRAS INHIBITORY EFFECT AGAINST HRAS AND NRAS” (CHUGAI SEIYAKU KABUSHIKI KAISHA, priority 2022, dated 2024).
Where a SMILES comes first, the peptide text is derived from it. Bridges are numbered along the chain shown (N, C = ends). [ ]: non-standard residue; d: D form. The star is where a group is joined. hPhe(3-Cl-4-CF3) = N[C@@H](CCc1ccc(C(F)(F)F)c(Cl)c1)C(=O)O; NPrPhe(4-CF3) = CCCN[C@@H](Cc1ccc(C(F)(F)F)cc1)C(=O)O; NMeGly(cPent) = CN[C@H](C(=O)O)C1CCCC1; NMeD = CN[C@@H](CC(=O)O)C(=O)O; NMeL = CN[C@@H](CC(C)C)C(=O)O; Pip = O=C(O)[C@@H]1CCCCN1; Morpholide = C1CN(*)CCO1; Ac5c = NC1(C(=O)O)CCCC1; Sar = CNCC(=O)O

Columns and labels:
[1] = target: HRAS wild-type protein (Homo sapiens, UniProt P01112); experiment: Binding to HRAS by surface plasmon resonance (SPR), KD and KD ratio to KRAS
Method: (§1) Surface plasmon resonance was used to analyze the binding affinity of compounds for KRAS, NRAS, and HRAS. The apparatus used was Biacore 8K, 8K+, or T200 (GE Healthcare), and the running buffer used was HBS (10 mM HEPES-NaOH, 150 mM NaCl, pH 7.4) containing 1 mM DTT, 10 mM MgCl2, 0.01% Tween 20, 10 µM GDP, and 4% DMSO.
(§2) Biotinylated Avi-tag fusion KRAS, NRAS, and HRAS proteins were expressed in E. coli BL21 (DE3) strains, and after cells were homogenized, they were purified using Streptavidin Mutein Matrix and Superdex 75. After purification, GDP-loaded KRAS, NRAS, and HRAS proteins were immobilized on the surface of Sensor Chip CAP (Cytiva) coated with Biotin CAPture Reagent in an immobilization amount of about 100 to 300 RU. Binding of each compound was evaluated by the Single Cycle Kinetics method, and a running buffer or a compound solution was added to the RAS protein non-immobilized surface and the immobilized surface to obtain a binding response. The flow rate was set to 100 µL/min, and in the compound-adding cycle, compound solutions having different concentrations were intermittently added for 75 seconds each, starting from a low concentration. […] In the blank cycle, a running buffer was intermittently added and not the compound solution. The Biotin CAPture Reagent and RAS proteins were immobilized for each cycle, and at the end of each cycle, the sensor chip was regenerated by the regeneration solution appended to the Biotin CAPture Kit (Cytiva). Measurement was carried out at 30°C.
(§3) The resulting sensorgram was subjected to curve fitting based on a 1:1 binding model on Biacore Insight Evaluation Software or T200 Evaluation Software, and thereby the dissociation constant KD of each compound with respect to KRAS, NRAS, and HRAS was determined. […] Blank indicates a compound from which the KD value with respect to NRAS or HRAS was not obtained.

[2] = test system: human lung cancer strain NCI-H441; assay type: cell-based
Method: A test compound was dispensed into a U-bottom 384-well plate as 40 nL serially diluted dimethyl sulfoxide solutions using a liquid handler Echo (LABCYTE). […] This cell suspension was dispensed in an amount of 40 µL per well into a plate containing the test compound, and cultured at 37°C in a 5% carbon dioxide gas incubator. Four days later, 20 µL of CellTiter-Glo (registered trademark) (Promega) was added to each well and […] was measured. […]

[3] = target: GDP-bound NRAS wild-type protein (Homo sapiens, UniProt P01111); experiment: Binding to NRAS by surface plasmon resonance (SPR), KD and KD ratio to KRAS
Method: as §1, §2, §3

[4] = ratio of KD for HRAS wild-type protein to KD for KRAS
[5] = ratio of KD for GDP-bound NRAS wild-type protein to KD for KRAS
[6] = ratio of KD value for HRAS wild-type protein to KD value for KRAS (SPR)
[7] = ratio of KD value for GDP-bound NRAS wild-type protein to KD value for KRAS (SPR)

Sequence of GDP-bound NRAS wild-type protein (P01111 whole entry): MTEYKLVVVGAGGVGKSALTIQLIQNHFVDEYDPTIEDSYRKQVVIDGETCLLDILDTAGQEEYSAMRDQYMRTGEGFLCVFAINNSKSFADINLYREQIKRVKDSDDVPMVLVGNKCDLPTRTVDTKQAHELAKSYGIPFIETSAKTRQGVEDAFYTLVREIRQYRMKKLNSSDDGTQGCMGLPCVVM
Sequence of HRAS wild-type protein (P01112 whole entry): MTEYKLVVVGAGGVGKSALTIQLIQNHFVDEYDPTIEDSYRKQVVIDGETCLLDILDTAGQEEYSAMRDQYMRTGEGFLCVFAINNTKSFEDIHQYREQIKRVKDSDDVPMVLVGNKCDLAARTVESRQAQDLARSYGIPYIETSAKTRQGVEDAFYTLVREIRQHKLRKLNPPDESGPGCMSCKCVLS

Row | SMILES | IC50 [2] | HRAS /KRAS [1, 4] | NRAS /KRAS [3, 5] | HRAS /KRAS ([1]; ratio of the KD value with respect to HRAS wild-type protein to the KD value with respect to KRAS) | NRAS /KRAS ([3]; ratio of the KD value with respect to GDP-bound NRAS wild-type protein to the KD value with respect to KRAS) | HRAS /KRAS [1, 6] | NRAS /KRAS [3, 7]
1 | CCO[C@@H]1C[C@H]2C(=O)NC3(CCC3)C(=O)N(C)[C@@H](C3CCCC3)C(=O)N(C)[C@H](C(=O)N(C)C)CC(=O)N(C)[C@@H](CC)C(=O)N[C@@H]([C@@H](C)CC)C(=O)N(C)CC(=O)N(C)[C@H]3CCCCN(C3=O)[C@@H](Cc3ccc(C(F)(F)F)cc3)C(=O)N(C)CC(=O)N[C@@H](CCc3ccc(C(F)(F)F)c(C)c3)C(=O)N2C1 [PP0882] | 7.1 nM | B (a compound having 3 or more and less than 10 is denoted as B) | C (A compound having a KD ratio of 0.1 or more and less than 3 is denoted as C) | – | – | – | –
2 | CCCN1C(=O)CN(C)C(=O)CN(C)C(=O)[C@H]([C@@H](C)CC)NC(=O)[C@H](CC(C)C)N(C)C(=O)C[C@@H](C(=O)N2CCOCC2)N(C)C(=O)[C@H](C2CCCC2)N(C)C(=O)C2(CCCC2)NC(=O)[C@@H]2CCCCN2C(=O)[C@H](CCc2ccc(C(F)(F)F)c(Cl)c2)NC(=O)CN(C)C(=O)[C@@H]1Cc1ccc(C(F)(F)F)cc1 [PP0263] ([NMeL]I[Sar][Sar][NPrPhe(4-CF3)][Sar][hPhe(3-Cl-4-CF3)][Pip][Ac5c][NMeGly(cPent)][NMeD]-Morpholide; lactam N-11) | 19.2 nM | C (A compound having a KD ratio of 0.1 or more and less than 3 is denoted as C) | B (a compound having 3 or more and less than 10 is denoted as B) | – | – | – | –
3 | CC[C@H](C)[C@@H]1NC(=O)[C@@H](CC(C)C)N(C)C(=O)C[C@@H](C(=O)N(C)C)N(C)C(=O)[C@@H](C2CCCC2)N(C)C(=O)C2(CCCC2)NC(=O)[C@@H]2CCCN2C(=O)[C@H](CCc2ccc(C(F)(F)F)c(Cl)c2)NC(=O)CN(C)C(=O)[C@@H](Cc2ccc(C)cc2)N2CC/C=C\CCN(CC2=O)C(=O)CN(C)C1=O [PP0618] | 79.1 nM | – | – | C (A compound having a KD ratio of 0.1 or more and less than 3 is denoted as C) | C (A compound having a KD ratio of 0.1 or more and less than 3 is denoted as C) | – | –
4 | CCO[C@@H]1C[C@H]2C(=O)NC3(CC(F)(F)C3)C(=O)N(C)[C@@H](C3CCCC3)C(=O)N3CCC[C@@H]3CC(=O)N(C)[C@@H](CC)C(=O)N[C@@H]([C@@H](C)CC)C(=O)N(C)CC(=O)N(C)[C@H]3C/C=C\CCN(C3=O)[C@@H](Cc3ccc(C(F)(F)F)cc3)C(=O)N(C)CC(=O)N[C@@H](CCc3cc(F)c(C(F)(F)F)c(F)c3)C(=O)N2C1 [PP1609] | 37 nM | – | – | – | – | A (a compound having 10 or more and less than 20 is denoted as A) | A (a compound having 10 or more and less than 20 is denoted as A)

Now from value to compound, other results behind:

Row | IC50 [2] | SMILES | HRAS /KRAS [1, 4] | NRAS /KRAS [3, 5] | HRAS /KRAS ([1]; ratio of the KD value with respect to HRAS wild-type protein to the KD value with respect to KRAS) | NRAS /KRAS ([3]; ratio of the KD value with respect to GDP-bound NRAS wild-type protein to the KD value with respect to KRAS) | HRAS /KRAS [1, 6] | NRAS /KRAS [3, 7]
5 | 13.1 nM | CCC[C@H]1C(=O)N[C@@H]([C@@H](C)CC)C(=O)N(C)CC(=O)N(C)[C@H]2C/C=C\CCN(C2=O)[C@@H](Cc2ccc(C)cc2)C(=O)N(C)CC(=O)N[C@@H](CCc2ccc(C(F)(F)F)c(OC)c2)C(=O)N2C[C@H](OCC)C[C@H]2C(=O)NC2(CCC2)C(=O)N(C)[C@@H](C2CCCC2)C(=O)N(C)[C@H](C(=O)N(C)C)CC(=O)N1C [PP1871] | – | – | – | – | A (a compound having 10 or more and less than 20 is denoted as A) | A (a compound having 10 or more and less than 20 is denoted as A)
6 | 5.1 nM | CCO[C@@H]1C[C@H]2C(=O)N(C)C3(CCC3)C(=O)N(C)[C@@H](C3CCCC3)C(=O)N(C)[C@H](C(=O)N(C)C)CC(=O)N(C)[C@@H](CC3CC3)C(=O)N[C@@H]([C@@H](C)CC)C(=O)N3CCC[C@H]3C(=O)N(C)[C@H]3C/C=C\CCN(C3=O)[C@@H](Cc3ccc(C)cc3)C(=O)N(C)CC(=O)N[C@@H](CCc3cc(F)c(C(F)(F)F)c(F)c3)C(=O)N2C1 [PP1797] | – | – | – | – | A (a compound having 10 or more and less than 20 is denoted as A) | A (a compound having 10 or more and less than 20 is denoted as A)
